Laboratory results: patent US20150051278A1, “METHOD OF EXTERMINATING HARMFUL INSECT” (KAO CORPORATION, priority 2012, published 2015)

Columns and labels:
Assay type in all cases: in vivo
Kanzawa spider mite = test: Acaricidal test; details: Kanzawa spider mite on kidney bean, 3 days after spraying
Procedure: A kidney bean was grown in a 12 cm pot until to be a 5-leaf stage. Thirty individuals of Kanzawa spider mite per one plant were implanted for three repetitions. To 1 L of water, the insecticide was mixed such that the concentration of each of the compounds at the time of spraying becomes the amount indicated in Table 4 and Table 6, thereby preparing the spray liquid of insecticide. This spray liquid was sprayed on the leaf surface of the kidney bean attached with Kanzawa spider mites in the application amount indicated in Table 4 and Table 6. After air drying, the kidney bean sprayed with the spray liquid was covered with a wire gauze cylinder. Three days later, the number of surviving mites was measured, and the mite killing rate was calculated by the following equation. It means that the effect of agricultural chemical (acaricidal effect) is high as the value of the mite killing rate is high. Mite killing rate (%)=(the number of surviving mites in non-treated area−the number of surviving mites in treated area)/the number of surviving mites in non-treated area×100

planthopper = test: Insecticidal test I; details: planthopper on rice seedling, 3 days after spraying
Procedure: A seedling of rice plant was grown in a 12 cm pot until the plant height reaches 15 cm. Ten individuals of planthopper, which had passed 3 to 5 days after emergence, were applied per one rice plant. The rice plant was trial-cultured for three repetitions. With 1 L of water, an insecticide was mixed in such an amount that the concentration of each of the compounds at the time of spraying was the amount indicated in Table 4, thereby preparing the spray liquid of insecticide. This spray liquid was sprayed on the leaf surface of the seedling of rice plant attached with planthoppers in the application amount indicated in Table 4. After air drying, the seedling of rice plant sprayed with the spray liquid was covered with a wire gauze cylinder. Three days later, the number of surviving insects was measured, and the insect killing rate (indicated as the “insect killing rate I” in Table 4) was calculated by the following equation. It means that the effect of agricultural chemical (insecticidal effect) is high as the value of the insect killing rate is high.
Insect killing rate (%)=(the number of surviving insects in non-treated area−the number of surviving insects in treated area)/the number of surviving insects in non-treated area×100

cotton aphid = test: Insecticidal test II; details: cotton aphid on cabbage leaf, 1 day after spraying
Procedure: A cabbage seedling was grown in a 12 cm pot until to be a ten-leaf stage. The leaf of cabbage was cut and placed in a petri dish with a diameter of 9 cm, and 15 individuals of cotton aphid were trial cultured for three repetitions. With 1 L of water, the insecticide was mixed in such an amount that the concentration of each of the compounds at the time of spraying was the amount indicated in Table 4, thereby preparing the spray liquid of insecticide. This spray liquid was sprayed to the leaf surface of the cabbage attached with cotton aphids in the application amount indicated in Table 4. After air drying, the petri dish was covered with a lid, and an oxygen permeable seal was sealed around the petri dish so as to prevent the escape of the aphid therefrom. One day later, the number of surviving insects was measured, and the insect killing rate (indicated as the “insect killing rate II” in Table 4) was calculated by the following equation. It means that the effect of agricultural chemical (insecticidal effect) is high as the value of the insect killing rate is high. Insect killing rate (%)=(the number of surviving insects in non-treated area−the number of surviving insects in treated area)/the number of surviving insects in non-treated area×100

[1] = application amount 100 L/10 a, (A)+(B) concentration 1000 ppm

| Substance | Mite killing rate (Kanzawa spider mite; [1]) [%] | Insect killing rate I (planthopper; [1]) [%] | Insect killing rate II (cotton aphid; [1]) [%] | Mite killing rate (Kanzawa spider mite; 100 L/10 a, 2000 ppm) [%] | Insect killing rate I (planthopper; 100 L/10 a, 2000 ppm) [%] | Insect killing rate II (cotton aphid; 100 L/10 a, 2000 ppm) [%] |
| --- | --- | --- | --- | --- | --- | --- |
| Monocapric acid monoglycerine [compound 7] | 40 | 46 | 57 | – | – | – |
| Octyl alcohol [compound 22] | – | – | – | 22 | 24 | 34 |
